Assay in all cases: DTP human tumour cell line panel, 48 h
The subject of test [1] is NCI-H522 lung.
In test [2] the test system is SNB-19 CNS.
The test system of test [3] is M14 melanoma.
Test [4] relates to NCI-H23 lung.
Test [5] deals with HT29 colon.
Test [6] deals with HOP-92 NSCLC.
Test [7] relates to COLO 205 colon.
Test [8] deals with CCRF-CEM leukemia.
The test system of test [9] is MCF7 breast.

“And” between values parts separate entries of the source, which are not always exact repeats. Equal entries are not always repeated.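 Following 48 hours of exposure in 96-well plates, responses at five concentrations were used to interpolate endpoints linearly. Abbreviation: GI50, concentration required for 50% inhibition of growth. Definition used: TGI = concentration required for complete inhibition of growth.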 A value given as a limit tells only on which side of the number the result lay.

Consider `O=C(Nc1ccc(Cl)cc1Cl)C1C(=O)C(=O)N(c2ccc(Cl)cc2Cl)C1=O` (stereo not given), for which the TGI in test [1], in [2], in test [3], in [4] and in test [5] was > 100 µM throughout.

As to `Cc1cccc(C)c1CO`, the concentration for total growth inhibition (TGI) in test [6], in test [1], in test [2], in [3], in [7] and in test [4] was > 100 µM throughout. Also, the TGI in [5] and in [8] was > 100 µM in each case.

`CC(=O)OC1CCn2nnc(CO)c21` (stereo not given): the TGI in test [6], in test [1], in test [2], in [7], in test [4] and in [5] was > 100 µM throughout.

For the compound `COc1ccc(C(=O)C(C(=O)CC(=O)Nc2cccc(C(F)(F)F)c2)c2ccc(OC)cc2)cc1` (stereo not given), the TGI in test [6], in test [1], in test [2], in test [3], in test [7] and in test [4] was > 100 µM each time. Besides, the TGI in [5] and in [8] was > 100 µM each time.

Turning to `O=C1C=CC(=O)C12CCc1ccccc12`, the TGI (commonly the concentration at which net growth stops) in test [6] is > 100 µM; in test [1] it was 33.2 µM; in test [2] it was > 100 µM; in test [3], > 100 µM; in test [7], > 100 µM; in [4], > 100 µM. The TGI was > 100 µM in test [5] and > 95.2 µM in test [8].

For `Cn1nc(-c2ccccc2)c(C(=O)/C=C/c2ccc(Cl)cc2)c(N2CCCCC2)c1=O`, the TGI in test [6] is 5.14 µM; in [1] it was 4.26 µM; in test [2], 4.72 µM; in [3], 9.17 µM; in test [7], 4.35 µM; in test [4] it was 5.48 µM. Also, the TGI in test [5] was found to be 6.9 µM; in test [8], 5.56 µM.

For the compound `COc1ccc(NC(=O)CC/C(CC(=O)C(C)(C)C)=N\NC(=O)C(=O)NN)cc1`, the TGI in test [6], in test [1], in test [2], in test [3], in [7] and in test [4] was > 100 µM in each case. Besides, the TGI in [5] and in test [8] was > 100 µM throughout.

As for `COC(=O)C1=C(O)c2cc(-c3ccccc3)c(-c3ccccc3)c(C#N)c2NC(=O)C1`, the concentration for total growth inhibition (TGI) in [2], in test [3], in test [7], in test [4], in [5] and in test [8] was > 100 µM each time.

Regarding `COc1cc(OC)c(SSCCCCS(=O)O)c(OC)c1`, the TGI was 21.1 µM in test [1]; 34.1 µM in [2]; 27.5 µM in test [3]; 35.7 µM in test [7]; 30.5 µM in test [4]; 32.9 µM in [5]. In [8], this compound came in with a TGI of 42.9 µM.

As for `CC1=C[C@]2(O)C(=O)[C@H](C)C[C@H]3[C@@H](CC[C@@](C)(O)/C=C\2C1=O)C3(C)C`, the TGI was 48.2 µM in test [6]; 26.7 µM in [1]; > 100 µM in test [2]; 39.9 µM in test [3]; 30.6 µM in test [7]; 72.6 µM in test [4]. Further, the TGI in test [5] is > 71.6 µM; in test [8], > 100 µM.

Regarding `COc1ccccc1C(O)(c1ccccc1)C(O)(c1ccccc1)c1ccccc1OC` (stereo not given), the TGI in test [6], in test [1], in test [2], in test [3], in test [7] and in test [4] was > 100 µM in each case. Moreover, the total growth inhibition concentration (TGI) in test [5] and in [8] was > 100 µM each time.

Regarding `O=C(c1ccccc1)c1c(-c2ccccc2)sc2nc3ccccc3nc12`, the TGI in test [6], in [1], in [2], in test [3], in test [7] and in test [4] was > 100 µM throughout. The TGI in test [5] and in test [8] was > 100 µM throughout.

Turning to `NC(=O)CCC(Nc1c2ccccc2nc2ccccc12)C(=O)O` (stereo not given), the TGI in [6], in [1], in test [3], in [7], in [4] and in test [5] was > 100 µM throughout. Besides, in test [8], the TGI was > 100 µM.

For the compound `COc1cc(Nc2nc3ccccc3nc2NS(=O)(=O)c2ccc(NC(=O)c3ccc(C)c(OC)c3)cc2)cc(OC)c1`, the GI50 (commonly the concentration that inhibits growth by half) in [2] is 3.14 µM and 19.8 µM and 2.3 µM; in test [4] it was 2.27 µM and 12.5 µM and 1.33 µM. The TGI in test [2] is 31 µM and > 100 µM and > 10 µM; in test [3] it was > 100 µM and 94 µM and > 4.68 µM; in [4], 17.3 µM and 58.9 µM and > 10 µM; in test [9], > 100 µM; in [5], > 100 µM; in test [8], > 100 µM and 71.6 µM and > 10 µM.

Take `O=C(O)Cc1cc(=O)[nH]c2c1/C(=N/O)CCC2`: the TGI in test [6], in test [1], in test [2], in [3], in test [4] and in test [5] was > 100 µM throughout. Moreover, the TGI in test [8] was > 100 µM.

Turning to `O=C(CCc1nnc2s/c(=C\c3ccc(Cl)c(Cl)c3)c(=O)n12)Nc1ccc(Cl)c(Cl)c1`, the TGI in [6] was > 100 µM; in test [1], 65.3 µM; in test [2] it was > 100 µM; in test [3] it was > 100 µM; in test [7], > 100 µM; in test [4], > 100 µM. For the same compound, the values for the TGI in test [5] and in test [8] were > 100 µM and 60.2 µM, respectively.

Turning to `COc1ccc(-c2cc(=O)c3ccccc3o2)cc1N`, the concentration for total growth inhibition (TGI) in [6] was > 100 µM; in test [1] it was 77.6 µM; in test [2] it was > 100 µM; in test [3], > 100 µM; in test [7], > 100 µM; in test [4], > 100 µM. The TGI in test [5] and in test [8] was > 100 µM throughout.

As for `CCN(CC)CCCNC(=O)C1COc2cc(-c3cc(=O)c4ccccc4o3)ccc2O1` (stereo not given), the TGI was > 100 µM in test [6]; > 100 µM in test [1]; > 100 µM in test [2]; 40 µM in test [3]; 81.4 µM in [7]; > 100 µM in [4]. Further, the TGI in test [5] and in test [8] was > 100 µM in each case.

In the case of `CC(=O)c1cccc(C)c1C(=O)O`, the concentration for total growth inhibition (TGI) in [1], in test [2], in test [3], in [7], in test [4] and in test [5] was > 100 µM throughout. Moreover, the TGI in test [8] was > 100 µM.

On to `CCOC(=O)/C(=C\c1ccc(N(CCC#N)CCC#N)cc1)NC(=O)c1cc([N+](=O)[O-])ccc1Cl`, for which the TGI in test [1], in [2], in test [3], in test [7], in test [4] and in test [5] was > 100 µM each time. In test [8], the TGI is > 100 µM.

On to `CC1=C(C(=O)Nc2cc(=O)n(C)c(=O)n2C)C(c2cccc([N+](=O)[O-])c2)C(C(=O)Nc2cc(=O)n(C)c(=O)n2C)=C(C)N1`, for which the TGI in [6], in [1], in test [2], in test [3], in [7] and in test [4] was > 100 µM each time. Also, the TGI in test [5] and in [8] was > 100 µM each time.

On to `O=C1[C@H]2ON(c3ccccc3)C(c3ccccc3)[C@H]2C(=O)N1c1ccc(Cc2ccc(N3C(=O)[C@@H]4ON(c5ccccc5)C(c5ccccc5)[C@@H]4C3=O)cc2)cc1` (stereo not given in full), for which the TGI in test [6], in test [3], in test [7], in test [4], in test [5] and in test [8] was > 100 µM throughout.

In the case of `O=C1Cc2c([nH]c3ccccc23)-c2ccccc2N1`, the TGI was > 100 µM in [6]; 62.6 µM in test [1]; > 100 µM in test [2]; > 100 µM in test [3]; 45.9 µM in test [7]; 61.1 µM in test [4]. Further, the TGI in [5] was 69 µM; in test [8], > 100 µM.

As to `C=C(C#N)C1OCC2OC(C)(C)OC21` (stereo not given), the TGI in test [6] is 43.3 µM; in [2], > 100 µM; in test [3] it was 30.5 µM; in [7], 30.3 µM; in test [4] it was 34.8 µM; in test [5] it was > 100 µM. In test [8], the TGI amounted to 48.8 µM.

As for `O=C1O[C@H](c2ccccc2)[C@@H]2CC3(CCN12)OCCO3`, the TGI was > 100 µM in [6]; 7.48 µM in test [1]; > 100 µM in test [2]; > 100 µM in test [3]; > 100 µM in test [7]; > 100 µM in test [4]. For the same compound, the TGI in [5] and in [8] was > 100 µM each time.

Take `CCOC(=O)Cc1ccc2c(c1O)C(=O)c1c(ccc(CC(=O)OCC)c1O)C2=O`: the TGI in test [6], in [1], in [2], in [3], in test [7] and in test [4] was > 100 µM throughout. Moreover, the TGI in test [5] and in test [8] was > 100 µM throughout.

Regarding `COC(=O)CC[C@]1(C)O[C@H]2[C@H]([C@@H](C)CCCC(C)=O)OC(=O)[C@@H]2C[C@H]1O`, the GI50 is > 100 µM in test [6]; > 100 µM in test [1]; > 100 µM in [2]; > 100 µM in [7]; 67.8 µM in test [4]; > 100 µM in test [9]. The GI50 in test [5] and in test [8] was > 100 µM each time. Also, the TGI in test [6], in [1], in test [2], in test [7], in test [4] and in [9] was > 100 µM throughout. Further, the TGI in test [5] and in test [8] was > 100 µM in each case.

On to `C[C@]12CCC(=O)C(O)=C1CC[C@@H]1C2CC[C@]2(C)NC(=O)CCC12` (stereo not given in full), for which the TGI in [6], in [1], in [2], in [3], in test [7] and in test [4] was > 100 µM in each case. Besides, the TGI in test [5] and in test [8] was > 100 µM each time.

As to `COc1ccc(/C(=N\NC(=O)C(=O)NN)C(c2ccc(OC)cc2)C2(O)C(=O)Nc3ccccc32)cc1` (stereo not given), the TGI in test [6], in test [1], in [2], in test [3], in test [7] and in test [4] was > 100 µM each time. Besides, the TGI in test [5] was > 100 µM.

On to `CN(C)CCNC(=O)c1cccc2nc3cc(Cl)ccc3nc12`, for which the TGI in test [6] was > 23.8 µM; in test [1], > 100 µM; in test [2] it was 16.9 µM; in test [3], > 21.9 µM; in test [4], 5.26 µM; in test [5], 6.22 µM.

On to `CC(=O)CC(N)=O`, for which the TGI in [6], in test [1], in [2], in test [3], in [7] and in test [4] was > 100 µM in each case. Besides, the TGI in test [5] and in [8] was > 100 µM in each case.

For `COc1ccc2c3c([nH]c2c1[N+](=O)[O-])C(C)N(Cc1ccc([N+](=O)[O-])cc1)CC3` (stereo not given), the TGI in [1] was 20.8 µM; in test [2] it was > 100 µM; in test [3], 35.9 µM; in [7], 35.8 µM; in [4] it was 44.5 µM; in [5], 35.3 µM. Moreover, in test [8], the TGI is > 100 µM.

The values above are taken from PubChem BioAssay (NCI).
